We go through 28 compounds from US8134015B2, “Compound inhibiting in vivo phosphorous transport and medicine containing the same” (Kyowa Hakko Kirin Co., Ltd., priority 2003, dated 2012).

The first assay addresses T1, rat NaPi-2b (Rattus norvegicus, UniProt Q9JJ09).
T1 construct: expressed in transfected cells; host or cells: Xenopus oocytes injected with cRNA
T1 sequence (Q9JJ09 1-695): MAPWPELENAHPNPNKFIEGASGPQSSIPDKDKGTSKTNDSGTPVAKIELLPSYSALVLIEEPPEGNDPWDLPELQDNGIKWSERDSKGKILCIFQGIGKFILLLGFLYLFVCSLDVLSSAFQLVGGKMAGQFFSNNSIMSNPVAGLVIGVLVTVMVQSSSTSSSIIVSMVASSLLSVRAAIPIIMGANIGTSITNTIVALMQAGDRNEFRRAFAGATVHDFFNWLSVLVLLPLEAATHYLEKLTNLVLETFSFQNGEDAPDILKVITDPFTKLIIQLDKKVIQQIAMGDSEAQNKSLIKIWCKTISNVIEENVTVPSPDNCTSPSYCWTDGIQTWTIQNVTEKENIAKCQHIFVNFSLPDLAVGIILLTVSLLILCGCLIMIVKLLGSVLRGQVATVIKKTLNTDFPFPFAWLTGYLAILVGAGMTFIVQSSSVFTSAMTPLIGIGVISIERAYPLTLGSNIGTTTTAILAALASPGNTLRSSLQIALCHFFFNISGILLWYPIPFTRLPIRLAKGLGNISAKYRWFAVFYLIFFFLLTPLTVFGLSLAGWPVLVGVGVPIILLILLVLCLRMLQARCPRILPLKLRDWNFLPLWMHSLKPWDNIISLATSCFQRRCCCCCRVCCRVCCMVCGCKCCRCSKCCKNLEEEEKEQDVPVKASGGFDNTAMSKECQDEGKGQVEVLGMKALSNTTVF
Nature of the assay: Sodium-dependent phosphate uptake of Xenopus oocytes which expressed NaPi-2b (32P). It is filed as cell-based. The note with it: Xenopus oocytes expressing rat NaPi-2b, 32P radioactive phosphorus; read-out: IC50 (phosphate uptake inhibitory activity). The method in brief:
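Read-out is 32P phosphate uptake into Xenopus oocytes expressing rat intestinal NaPi-2b (cRNA injection, 2-day culture). Inhibition at 300 μM and 100 μM was derived from a single inhibition curve and given as percent.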
`Cc1ccc(/C=N/NC(=O)c2c(NC(=O)c3cccc(CN4CCN(CCO)CC4)c3)sc3c2CCCC3)cc1C` [Compound 621, N-[3-(3,4-Dimethyl-benzylidene-hydrazinocarbonyl)-4,5,6,7-tetrahydro-benzo[b]thiophen-2-yl]-3-[4-(2-hydroxy-ethyl)-piperazin-1-ylmethyl]-benzamide]: the half-inhibitory concentration (IC50) (usually the concentration at which inhibition is half-maximal) was less than 3 µM.

Turning to `COc1ccc(/C=N/NC(=O)c2c(NC(=O)c3cccc(CN(CC(C)O)CC(C)O)c3)sc(C)c2C)cc1` (stereo not shown) [Compound 848, 3-{[Bis-(2-hydroxy-propyl)-amino]-methyl}-N-[3-(4-methoxy-benzylidene-hydrazinocarbonyl)-4,5-dimethyl-thiophen-2-yl]-benzamide], the half-inhibitory concentration (IC50) turned out to be 2.2 µM.

On to `Cc1ccc(/C=N/NC(=O)c2cc(Cl)ccc2NC(=O)c2cccc(CN(CCO)CCO)c2)cc1` [Compound 405, 3-{[Bis-(2-hydroxy-ethyl)-amino]-methyl}-N-[4-chloro-2-(4-methyl-benzylidene-hydrazinocarbonyl)-phenyl]-benzamide], for which the IC50 turned out to be 1.9 µM.

In the case of `O=C(Nc1ccc(Cl)cc1C(=O)N/N=C/c1cccc(F)c1)c1cccc(CSc2nc[nH]n2)c1` [Compound 389, N-[4-Chloro-2-(3-fluoro-benzylidene-hydrazinocarbonyl)-phenyl]-3-(1H-[1,2,4]triazol-3-ylsulfanylmethyl)-benzamide], the IC50 was 1.09 µM.

On to `COc1ccc(C(=O)Nc2scc(C)c2C(=O)N/N=C/c2cccc(C)c2)cc1OC` [Compound 518, 3,4-Dimethoxy-N-[4-methyl-3-(3-methyl-benzylidene-hydrazinocarbonyl)-thiophen-2-yl]-benzamide], for which the IC50 is 1.52 µM.

On to `Cc1ccc(/C=N/NC(=O)c2ccsc2NC(=O)c2cccc(CSCCCO)c2)cc1` [Compound 659, 3-(3-Hydroxy-propylsulfanylmethyl)-N-[3-(4-methyl-benzylidene-hydrazinocarbonyl)-thiophen-2-yl]-benzamide], for which the IC50 turned out to be 12.4 µM.

For the compound `Cc1ccc(/C=N/NC(=O)c2cc(Cl)ccc2NC(=O)c2ccc(CN(C)CCO)cc2)cc1C` [Compound 416, N-[4-Chloro-2-(3,4-dimethyl-benzylidene-hydrazinocarbonyl)-phenyl]-4-{[(2-hydroxy-ethyl)-methyl-amino]-methyl}-benzamide], the IC50 was 3.25 µM.

On to `O=C(Nc1ccc(Br)cc1C(=O)N/N=C/c1ccc(Cl)c(C(F)(F)F)c1)c1ccncc1` [Compound 171, N-[4-Bromo-2-(4-chloro-3-trifluoromethyl-benzylidene-hydrazinocarbonyl)-phenyl]-isonicotinamide], for which the IC50 was 5.12 µM.

On to `O=C(Nc1sc2c(c1C(=O)N/N=C/c1cccc(F)c1)CCC2)c1cccc(CN2CCC(CO)CC2)c1` [Compound 819, N-[3-(3-Fluoro-benzylidene-hydrazinocarbonyl)-5,6-dihydro-4H-cyclopenta[b]thiophen-2-yl]-3-(4-hydroxymethyl-piperidin-1-ylmethyl)-benzamide], for which the half-maximal inhibitory concentration (IC50) was found to be 5.95 µM.

With `CCN(CC)CCN(CCN(CC)CC)Cc1cccc(C(=O)Nc2ccc(N3CCCCC3)cc2C(=O)N/N=C/c2ccc(Cl)c(C(F)(F)F)c2)c1` [Compound 909, 3-{[Bis-(2-diethylamino-ethyl)-amino]-methyl}-N-[2-(4-chloro-3-trifluoromethyl-benzylidene-hydrazinocarbonyl)-4-piperidin-1-yl-phenyl]-benzamide], the IC50 turned out to be 1.02 µM.

On to `COc1ccc(C(=O)Nc2ccccc2C(=O)N/N=C/c2cc(C(F)(F)F)cc(C(F)(F)F)c2)cc1OC` [Compound 8, N-[2-(3,5-Bis-trifluoromethyl-benzylidene-hydrazinocarbonyl)-phenyl]-3,4-dimethoxy-benzamide], for which the IC50 was found to be 1.72 µM.

For the compound `COc1ccc(/C=N/NC(=O)c2cscc2NC(=O)c2cccc(CN3CCN(CCO)CC3)c2)cc1` [Compound 984, 3-[4-(2-Hydroxy-ethyl)-piperazin-1-ylmethyl]-N-[4-(4-methoxy-benzylidene-hydrazinocarbonyl)-thiophen-3-yl]-benzamide], the 50% inhibitory concentration (IC50) was found to be 22.1 µM.

Regarding `Cc1ccc(/C=N/NC(=O)c2c(C)csc2NC(=O)c2cccc(CSCCCO)c2)cc1C` [Compound 557, N-[3-(3,4-Dimethyl-benzylidene-hydrazinocarbonyl)-4-methyl-thiophen-2-yl]-3-(3-hydroxy-propylsulfanylmethyl)-benzamide], the IC50 is less than 0.3 µM.

`O=C(Nc1ccc(Br)cc1C(=O)N/N=C/c1ccc(Cl)c(C(F)(F)F)c1)c1ccccn1` [Compound 500, Pyridin-2-carboxylic acid [4-bromo-2-(4-chloro-3-trifluoromethyl-benzylidene-hydrazinocarbonyl)-phenyl]-amide]: the IC50 amounted to 0.35 µM.

Turning to `CCN1CC(NCc2ccc(-c3nc4ccc(Br)cc4c(=O)n3/N=C/c3cccc(F)c3)cc2)CN1CC` [Compound 751, 6-Bromo-2-{4-[(1,2-diethyl-pyrazolidin-4-ylamino)-methyl]-phenyl}-3-[(3-fluoro-benzylidene)-amino]-3H-quinazolin-4-one], the IC50 came out at 13.1 µM.

As for `O=C(Nc1ccc(N2CCC(N3CCCCC3)CC2)cc1C(=O)N/N=C/c1ccc(Cl)c(C(F)(F)F)c1)c1cccc(CSCCO)c1` [Compound 1067], the IC50 came to 2.79 µM.

`CN(CCO)Cc1ccc(C(=O)Nc2ccc(Cl)cc2C(=O)N/N=C/c2ccc(O)cc2)cc1` [Compound 421, N-[4-Chloro-2-(4-hydroxy-benzylidene-hydrazinocarbonyl)-phenyl]-4-{[(2-hydroxy-ethyl)-methyl-amino]-methyl}-benzamide]: the IC50 came to 29.6 µM.

Turning to `C/C(=N\NC(=O)c1cc(Br)ccc1NC(=O)c1cccc(CN(CC(C)O)CC(C)O)c1)c1cccc(F)c1` (stereo not shown) [Compound 996, 3-{[Bis-(2-hydroxy-propyl)-amino]-methyl}-N-{4-bromo-2-[1-(3-fluoro-phenyl)-ethylidene-hydrazinocarbonyl]-phenyl}-benzamide], the IC50 turned out to be 2.66 µM.

As for `O=C(Nc1ccc(I)cc1C(=O)N/N=C/c1ccc(O)cc1)c1cccc(CN2CCC(N3CCCCC3)CC2)c1` [Compound 491, 3-[1,4′]Bipiperidinyl-1′-ylmethyl-N-[2-(4-hydroxy-benzylidene-hydrazinocarbonyl)-4-iodo-phenyl]-benzamide], the IC50 is less than 3 µM.

For `Cc1ccc(/C=N/NC(=O)c2cc(Br)ccc2NC(=O)c2cccc(C[S+]([O-])CCO)c2)cc1` (stereo not shown) [Compound 677, N-[4-Bromo-2-(4-methyl-benzylidene-hydrazinocarbonyl)-phenyl]-3-(2-hydroxy-ethanesulfinylmethyl)-benzamide], the IC50 was less than 3 µM.

Consider `CCN(CC)CCN(C)Cc1cccc(C(=O)Nc2ccc(OCCOCCOC)cc2C(=O)N/N=C/c2ccc(C)c(C)c2)c1` [Compound 1035, 3-{[(2-Diethylamino-ethyl)-methyl-amino]-methyl}-N-{2-(3,4-dimethyl-benzylidene-hydrazinocarbonyl)-4-[2-(2-methoxy-ethoxy)-ethoxy]-phenyl}-benzamide], for which the IC50 stood at 3.7 µM.

In the case of `COc1ccc(/C=N/NC(=O)c2c(NC(=O)c3cccc(CN4CCC(CO)CC4)c3)sc3ccccc23)cc1` [Compound 803, 3-(4-Hydroxymethyl-piperidin-1-ylmethyl)-N-[3-(4-methoxy-benzylidene-hydrazinocarbonyl)-benzo[b]thiophen-2-yl]-benzamide], the half-inhibitory concentration (IC50) is 4.92 µM.

Turning to `Cc1cccc(/C=N/NC(=O)c2cc(Cl)ccc2NC(=O)c2ccccn2)c1` [Compound 361, Pyridin-2-carboxylic acid [4-chloro-2-(3-methyl-benzylidene-hydrazinocarbonyl)-phenyl]-amide], the IC50 is less than 1 µM.

For `Cc1ccccc1/C=N/NC(=O)c1ccccc1NC(=O)c1ccccc1` [Compound 229, N-[2-(2-Methyl-benzylidene-hydrazinocarbonyl)-phenyl]-benzamide], the half-inhibitory concentration (IC50) was determined as 6.32 µM.

Staying with this assay, now noted: phosphate uptake, oocytes expressing rat NaPi-2b; 100 μM, determined from inhibition curve.
As to `COc1ccc(/C=N/NC(=O)c2cc(N3CCC(N4CCCCC4)CC3)ccc2NC(=O)c2cccc(CSCCO)c2)cc1` [Compound 1068], the inhibition (as a rule, how much of the control response was suppressed) at 100 µM came to 74.4%.

Staying with this assay, now noted: phosphate uptake, oocytes expressing rat NaPi-2b; 300 μM, determined from inhibition curve.
As for `O=C(Nc1ccccc1C(=O)N/N=C/c1ccccc1F)c1ccccc1F` [Compound 236, 2-Fluoro-N-[2-(2-fluoro-benzylidene-hydrazinocarbonyl)-phenyl]-benzamide], the inhibition at 300 µM came out at 49.4%.

As to `CCN(CC)CCNCc1cccc(C(=O)Nc2c(C)csc2C(=O)N/N=C/c2ccc(C)cc2)c1` [Compound 537, 3-[(2-Diethylamino-ethylamino)-methyl]-N-[4-methyl-2-(4-methyl-benzylidene-hydrazinocarbonyl)-thiophen-3-yl]-benzamide], the inhibition at 300 µM amounted to 82%.

Regarding `O=C(Nc1ccc(Cl)cc1C(=O)N/N=C/c1ccc(Cl)c(C(F)(F)F)c1)c1cccc(CSCCS(=O)(=O)O)c1` [Compound 709, 2-{3-[4-Chloro-2-(4-chloro-3-trifluoromethyl-benzylidene-hydrazinocarbonyl)-phenylcarbamoyl]-benzylsulfanyl}-ethanesulfonic acid], the inhibition at 300 µM was found to be 59.4%.
